Reference: article PMC4794603 (Molecules and Cells, 2016)
Read-outs that look alike come from different tables or passages of the source.

Columns and labels:
CYP107W1 W178G mutant [1] = biological target: T1, CYP107W1 W178G mutant (Streptomyces avermitilis, UniProt Q93HJ0, W178G); test: UV-vis spectral binding titration
T1 sequence (Q93HJ0 1-404 W178G): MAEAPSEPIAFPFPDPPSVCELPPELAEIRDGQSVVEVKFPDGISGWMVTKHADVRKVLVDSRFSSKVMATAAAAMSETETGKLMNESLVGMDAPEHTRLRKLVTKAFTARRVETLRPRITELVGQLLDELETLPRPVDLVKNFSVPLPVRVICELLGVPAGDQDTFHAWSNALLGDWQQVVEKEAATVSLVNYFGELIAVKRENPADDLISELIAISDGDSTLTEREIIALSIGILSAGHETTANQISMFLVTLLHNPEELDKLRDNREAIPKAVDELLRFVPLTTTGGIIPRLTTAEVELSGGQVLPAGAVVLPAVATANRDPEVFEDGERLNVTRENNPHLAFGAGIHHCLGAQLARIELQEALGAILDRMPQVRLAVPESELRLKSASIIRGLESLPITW

[2] = test system: [H][C@@]12OC(=O)C=C[C@@H](C)[C@H](O)[C@@H](C)C(=O)[C@@H](C)[C@H](O)[C@@H](C)C(=O)[C@H](C)[C@H](O)[C@@H](C)CC=CC=C[C@@H](CC)CC[C@@]([H])(O[C@@]3(CC[C@@H](C)[C@@H](C[C@H](C)O)O3)[C@@H]1C)[C@@H]2C; test: purified protein; conditions: heme
CYP107W1 W178G mutant [3] = biological target: T1, CYP107W1 W178G mutant; test: UV-vis spectral binding titration; remark: listed apart in the source
CYP107W1 = biological target: T2, CYP107W1 (Streptomyces avermitilis, UniProt Q93HJ0); test: co-crystal structure at […] Å; type: binding
T2 sequence (Q93HJ0 1-404): T1 sequence (Q93HJ0 1-404 W178G)

**Q.** CC[C@@H]1/C=C/C=C/C[C@H](C)[C@H](O)[C@](C)(O)C(=O)[C@H](C)[C@@H](O)[C@H](C)C(=O)[C@H](C)[C@@H](O)[C@H](C)/C=C/C(=O)O[C@H]2[C@@H](C)[C@@H](CC1)O[C@@]1(CC[C@@H](C)[C@@H](C[C@H](C)O)O1)[C@@H]2C [oligomycin A] was tested. Which Kd (CYP107W1 W178G mutant [1]) did it give?
**A.** Its Kd is 4.3 ± 0.7 µM.

**Q.** For “CYP107W1 W178G mutant (Streptomyces avermitilis; W178G)”, which Km [2] is on record?
**A.** Its Km is 3.4 ± 0.4 µM.

**Q.** Which Kd (CYP107W1 W178G mutant [3]) does the source give for Clc1ccc(COC(Cn2ccnc2)c2ccc(Cl)cc2Cl)c(Cl)c1 (centres unmarked) [miconazole] here?
**A.** The Kd was 3.1 ± 0.3 µM.

**Q.** With Clc1ccc(COC(Cn2ccnc2)c2ccc(Cl)cc2Cl)cc1 (centres unmarked) [econazole] as the compound, how does the Kd (CYP107W1 W178G mutant [3]) read?
**A.** Its Kd is 5.3 ± 0.4 µM.

**Q.** CC[C@H]1/C=C\C=C\C[C@@H](C)[C@H](O)[C@@](C)(O)C(=O)[C@@H](C)[C@H](O)[C@@H](C)C(=O)[C@@H](C)[C@H](O)[C@@H](C)/C=C/C(=O)O[C@@H]2[C@H](C)[C@H](CC1)O[C@]1(CC[C@H](C)[C@H](C[C@@H](C)O)O1)[C@H]2C [OliA, oligomycin A] was tested. Which “co-crystal structure at 2.6 Å” value (CYP107W1) did it give?
**A.** The value was “Coordinates and structure factors of CYP107W1-OliA have been deposited in the Protein Data Bank with accession number 4WQ0”.
